Counter-ions that a name gives are not always drawn.
Key:
human AML MV-4-11 cells = assay: Inhibition of cell proliferation in MV4-11 cells (CellTiter Aqueous One); format: cell-based; conditions: for IC50: MV4-11, 72 h
Summary of the method: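 Exponentially growing MV-4-11 cells (5×10^4/well) were treated immediately with two-fold dilutions of compound from 30 μM to 0.2 μM, in triplicate, for 72 h at 37° C, 5% CO2. Viability was measured by MTS absorbance at 490 nm after 3–4 h. Proliferation relative to DMSO after blank correction gave IC50.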

c-myc = assay: Inhibition of c-myc expression (mRNA, real-time PCR) in MV4-11 cells; format: cell-based; conditions: Human AML MV4-11 cells, 3 h, cMYC mRNA
Summary of the method: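 MV4-11 cells treated 3 h at 37° C with increasing compound concentrations or 0.1% DMSO, in triplicate. cMYC mRNA quantified by one-step TaqMan real-time PCR, Ct normalized to internal control (Cyclophilin primers used), fold expression relative to control.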

[1] = biological target: T1, Brd4 bromodomain 1 (BRD4(1)) (Homo sapiens, UniProt O60885); assay: Inhibition of tetra-acetylated histone H4 binding to Brd4 bromodomain 1 (TR-FRET); conditions: tetra-acetylated histone H4 peptide, first bromodomain of Brd4
T1 construct: made in house; host or cells: E. coli BL21(DE3)
Summary of the method: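 His-tagged BRD4(1) from E. coli (200 nM) with biotinylated tetra-acetylated H4 peptide (25-50 nM), Eu-cryptate streptavidin and XL665 anti-His, in HEPES pH 7.4/phosphate/KF buffer, 0.2% DMSO. After 2 h at room temperature, TR-FRET 665/620 nm ratio read; IC50 from dose-response curves.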

hIL-6 mRNA = assay: Inhibition of hIL-6 mRNA transcription in LPS-stimulated U937 cells; format: cell-based; conditions: Homo sapiens, U-937; PMA-differentiated U937 cells, 1 h pretreatment, 1 ug/mL LPS stimulation, 3 h; read-out: IL-6 activity (Inhibition of hIL-6 mRNA Transcription)
Summary of the method: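 U937 cells differentiated 3 days with 60 ng/mL PMA, pretreated 1 h with compound (0.1% DMSO), then stimulated with 1 ug/mL E. coli LPS for 3 h at 37 °C. hIL-6 mRNA measured by one-step TaqMan RT-qPCR, normalized to cyclophilin. Fold expression relative to control; triplicate wells.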

| IC50 (human AML MV-4-11 cells) | IC50 (c-myc) | IC50 [1] | IC50 (hIL-6 mRNA) | SMILES | Cell Proliferation activity (human AML MV-4-11 cells; 72 h) |
| --- | --- | --- | --- | --- | --- |
| 300 to 3000 nM | 300 to 3000 nM | ≤ 300 nM | 300 to 3000 nM | Cc1noc(C)c1-c1cnc2c([N+](=O)[O-])cn(Cc3ccccc3)c2c1 [Example Compound 39, 4-(1-benzyl-3-nitro-1H-pyrrolo[3,2-b]pyridin-6-yl)-3,5-dimethylisoxazole] |  |
| 3000 to 30000 nM | 300 to 3000 nM | ≤ 300 nM | 300 to 3000 nM | Cc1noc(C)c1-c1cc(C#N)c2[nH]c(=O)n(Cc3ccccc3)c2c1 [compound 86, 1-benzyl-6-(3,5-dimethylisoxazol-4-yl)-2-oxo-2,3-dihydro-1H-benzo[d]imidazole-4-carbonitrile] |  |
| ≤ 300 nM | ≤ 300 nM | ≤ 300 nM | ≤ 300 nM | Cc1noc(C)c1-c1cc(N)c2nc(N3CCOCC3)n(Cc3ccccc3)c2c1 [compound 87, 1-benzyl-6-(3,5-dimethylisoxazol-4-yl)-2-morpholino-1H-benzo[d]imidazol-4-amine] |  |
| ≤ 300 nM | 300 to 3000 nM | ≤ 300 nM | 300 to 3000 nM | CCn1c(=O)n(Cc2ccccc2)c2cc(-c3c(C)noc3C)ccc21 [compound 122] |  |
| 300 to 3000 nM | 300 to 3000 nM | ≤ 300 nM | 300 to 3000 nM | CCNc1nc2ncc(-c3c(C)noc3C)cc2n1CC1CC1 [compound 131, 1-(cyclopropylmethyl)-6-(3,5-dimethylisoxazol-4-yl)-N-ethyl-1H-imidazo[4,5-b]pyridin-2-amine] |  |
|  | 3000 to 30000 nM | 300 to 3000 nM | 3000 to 30000 nM | Cc1noc(C)c1-c1cc2c(ccn2Cc2ccccc2)nc1OC=O [Example Compound 37, 1-benzyl-6-(3,5-dimethylisoxazol-4-yl)-1H-pyrrolo[3,2-b]pyridin-5-yl formate] | Not active |
| 3000 to 30000 nM | 3000 to 30000 nM | 300 to 3000 nM | 3000 to 30000 nM | Cc1noc(C)c1-c1cnc2c(c1)ncn2Cc1ccccn1 [Example Compound 46, 3,5-dimethyl-4-(3-(pyridin-2-ylmethyl)-3H-imidazo[4,5-b]pyridin-6-yl)isoxazole] |  |
| 300 to 3000 nM | ≤ 300 nM | ≤ 300 nM | ≤ 300 nM | Cc1noc(C)c1-c1cc(N)c2cnn(Cc3ccc(Cl)cc3)c2c1 [compound 102, 1-(4-chlorobenzyl)-6-(3,5-dimethylisoxazol-4-yl)-1H-indazol-4-amine] |  |
| 3000 to 30000 nM | 300 to 3000 nM | 300 to 3000 nM | 300 to 3000 nM | Cc1noc(C)c1-c1cnc2c(c1)ncn2Cc1ccccc1 [Example Compound 4, 4-(3-Benzyl-3H-imidazo[4,5-b]pyridin-6-yl)-3,5-dimethylisoxazole] |  |
| 300 to 3000 nM | 300 to 3000 nM | ≤ 300 nM | 300 to 3000 nM | Cc1noc(C)c1-c1cc(F)c2nc(C)n(Cc3ccccc3)c2c1 [compound 158, 4-(1-benzyl-4-fluoro-2-methyl-1H-benzo[d]imidazol-6-yl)-3,5-dimethylisoxazole] |  |
| 300 to 3000 nM | 300 to 3000 nM | ≤ 300 nM | 300 to 3000 nM | Cc1noc(C)c1-c1cc([N+](=O)[O-])c2[nH]c(=O)n(Cc3ccccc3)c2c1 [Example Compound 15, 1-benzyl-6-(3,5-dimethylisoxazol-4-yl)-4-nitro-1H-benzo[d]imidazol-2(3H)-one] |  |
| 300 to 3000 nM | 300 to 3000 nM | ≤ 300 nM | 300 to 3000 nM | Cc1nc2c(N)cc(-c3ccnn3C)cc2n1Cc1ccccc1 [compound 94, 1-benzyl-2-methyl-6-(1-methyl-1H-pyrazol-5-yl)-1H-benzo[d]imidazol-4-amine] |  |
| 300 to 3000 nM | 300 to 3000 nM | ≤ 300 nM | ≤ 300 nM | Cc1noc(C)c1-c1cc(N)c2nc(C)n(CC3CCC3)c2c1 [compound 132, 1-(cyclobutylmethyl)-6-(3,5-dimethylisoxazol-4-yl)-2-methyl-1H-benzo[d]imidazol-4-amine] |  |
| 300 to 3000 nM | ≤ 300 nM | ≤ 300 nM | ≤ 300 nM | CNc1nc2c([N+](=O)[O-])cc(-c3c(C)noc3C)cc2n1Cc1ccccc1 [compound 149, 1-benzyl-6-(3,5-dimethylisoxazol-4-yl)-N-methyl-4-nitro-1H-benzo[d]imidazol-2-amine] |  |
| 300 to 3000 nM | 300 to 3000 nM | ≤ 300 nM | 300 to 3000 nM | COc1ccc(Cn2c(C)nc3ncc(-c4c(C)noc4C)cc32)cc1 [Example Compound 62, 4-(1-(4-methoxybenzyl)-2-methyl-1H-imidazo[4,5-b]pyridin-6-yl)-3,5-dimethylisoxazole] |  |
| ≤ 300 nM | ≤ 300 nM | ≤ 300 nM | ≤ 300 nM | Cc1noc(C)c1-c1cnc2nc(NC3CCCC3)n(Cc3ccccc3)c2c1 [compound 214, 1-benzyl-N-cyclopentyl-6-(3,5-dimethylisoxazol-4-yl)-1H-imidazo[4,5-b]pyridin-2-amine] |  |
| 3000 to 30000 nM | 3000 to 30000 nM | 300 to 3000 nM | 3000 to 30000 nM | Cc1noc(C)c1-c1cnc2c(CN(C)C)cn(Cc3ccccc3)c2c1 [compound 72, 1-(1-benzyl-6-(3,5-dimethylisoxazol-4-yl)-1H-pyrrolo[3,2-b]pyridin-3-yl)-N,N-dimethylmethanamine] |  |
| 300 to 3000 nM | 300 to 3000 nM | ≤ 300 nM | 300 to 3000 nM | Cc1noc(C)c1-c1cnc2nc(C)n(Cc3ccc(Cl)c(Cl)c3)c2c1 [compound 95, 4-(1-(3,4-dichlorobenzyl)-2-methyl-1H-imidazo[4,5-b]pyridin-6-yl)-3,5-dimethylisoxazole] |  |
| 300 to 3000 nM | 300 to 3000 nM | ≤ 300 nM | 300 to 3000 nM | CNC(=O)c1nc2ncc(-c3c(C)noc3C)cc2n1Cc1ccccc1 [compound 221, 1-benzyl-6-(3,5-dimethylisoxazol-4-yl)-N-methyl-1H-imidazo[4,5-b]pyridine-2-carboxamide] |  |
| 3000 to 30000 nM | 3000 to 30000 nM | ≤ 300 nM | 300 to 3000 nM | Cc1noc(C)c1-c1cnc2cnn(Cc3ccc(Cl)cc3)c2c1 [compound 93, 4-(1-(4-chlorobenzyl)-1H-pyrazolo[4,3-b]pyridin-6-yl)-3,5-dimethylisoxazole] |  |
| 300 to 3000 nM | 300 to 3000 nM | ≤ 300 nM | 300 to 3000 nM | Cc1noc(C)c1-c1cc(N)c2nc(C)n(CC3CC3)c2c1 [compound 75, 1-(cyclopropylmethyl)-6-(3,5-dimethylisoxazol-4-yl)-2-methyl-1H-benzo[d]imidazol-4-amine] |  |
| ≤ 300 nM | ≤ 300 nM | ≤ 300 nM | ≤ 300 nM | CCNc1nc2c(NC(C)=O)cc(-c3c(C)noc3C)cc2n1Cc1ccccc1 [compound 119, N-(1-benzyl-6-(3,5-dimethylisoxazol-4-yl)-2-(ethylamino)-1H-benzo[d]imidazol-4-yl)acetamide] |  |
| ≤ 300 nM | ≤ 300 nM | ≤ 300 nM | ≤ 300 nM | Cc1noc(C)c1-c1cc(N)c2nc(C)n([C@@H](C)c3ccccc3)c2c1 [compound 143, (S)-6-(3,5-dimethylisoxazol-4-yl)-2-methyl-1-(1-phenylethyl)-1H-benzo[d]imidazol-4-amine] |  |
| 3000 to 30000 nM | 300 to 3000 nM | ≤ 300 nM | 300 to 3000 nM | Cc1noc(C)c1-c1cc([N+](=O)[O-])c2[nH]c(=O)n(Cc3ccc(Cl)cc3)c2c1 [compound 91, 1-(4-chlorobenzyl)-6-(3,5-dimethylisoxazol-4-yl)-4-nitro-1H-benzo[d]imidazol-2(3H)-one] |  |
| 300 to 3000 nM | ≤ 300 nM | ≤ 300 nM | ≤ 300 nM | Cc1noc(C)c1-c1cnc2nc(NCc3cccc(C#N)c3)n(Cc3ccccc3)c2c1 [compound 217, 3-(((1-benzyl-6-(3,5-dimethylisoxazol-4-yl)-1H-imidazo[4,5-b]pyridin-2-yl)amino)methyl)benzonitrile] |  |
| ≤ 300 nM | ≤ 300 nM | ≤ 300 nM | ≤ 300 nM | CNc1nc2c(N)cc(-c3c(C)noc3C)cc2n1Cc1ccccc1 [compound 151, 1-benzyl-6-(3,5-dimethylisoxazol-4-yl)-N2-methyl-1H-benzo[d]imidazole-2,4-diamine] |  |
| 300 to 3000 nM | ≤ 300 nM | ≤ 300 nM | ≤ 300 nM | Cc1noc(C)c1-c1cnc2nc(NCCN3CCOCC3)n(Cc3ccccc3)c2c1 [compound 215, 1-benzyl-6-(3,5-dimethylisoxazol-4-yl)-N-(2-morpholinoethyl)-1H-imidazo[4,5-b]pyridin-2-amine] |  |

| SMILES | IC50 (human AML MV-4-11 cells) | IC50 (c-myc) | IC50 [1] | IC50 (hIL-6 mRNA) | Cell Proliferation activity (human AML MV-4-11 cells; 72 h) |
| --- | --- | --- | --- | --- | --- |
| CC(=O)c1cn(Cc2ccccc2)c2cc(-c3c(C)noc3C)cnc12 [Example Compound 36, 1-(1-benzyl-6-(3,5-dimethylisoxazol-4-yl)-1H-pyrrolo[3,2-b]pyridin-3-yl)ethanone] | 300 to 3000 nM | 300 to 3000 nM | ≤ 300 nM | 300 to 3000 nM |  |
